Data taken from patent publication US12551500B2, “C6′-substituted locked nucleic acid-modified cap analog and use thereof” (Hangzhou Tianlong Pharmaceutical Co., Ltd., priority 2024, dated 2026).

What was measured:
DCP2 enzyme = molecular target: T1, DCP2 enzyme (Schizosaccharomyces pombe, UniProt O13828); assay: Decapping enzyme stability test; format: biochemical; settings: 30 pmol RNA, 50 U mRNA decapping enzyme, 37° C., 45 minutes
T1 construct: purchased New England Biolabs
T1 sequence (O13828 1-243 limits assumed): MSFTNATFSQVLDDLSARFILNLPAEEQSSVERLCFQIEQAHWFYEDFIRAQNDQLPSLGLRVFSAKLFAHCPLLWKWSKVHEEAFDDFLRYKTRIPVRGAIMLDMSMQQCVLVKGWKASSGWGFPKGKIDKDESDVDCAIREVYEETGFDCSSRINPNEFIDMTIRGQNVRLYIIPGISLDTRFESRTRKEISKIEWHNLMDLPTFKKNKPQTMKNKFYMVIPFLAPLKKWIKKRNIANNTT
T1 sequence (Q9P805 1-127 partner): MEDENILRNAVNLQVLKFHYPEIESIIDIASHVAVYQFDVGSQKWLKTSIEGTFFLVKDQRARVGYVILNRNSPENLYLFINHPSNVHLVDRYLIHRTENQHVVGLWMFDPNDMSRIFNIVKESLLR
T1 sequence (Q10108 155-180 partner limits assumed): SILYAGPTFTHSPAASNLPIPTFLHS
Protocol: 30 pmol of RNAs purified by polyacrylamide gel electrophoresis (PAGE) was subjected to an enzymatic reaction with 50 U of mRNA decapping enzyme (New England Biolabs) and 1×MDE buffer at 37° C. for 45 minutes. The enzymatic reactants were subjected to PAGE and stained with SYBR Green II (Lonza), followed by observation of the post-electrophoresis gel image on a Typhoon FLA 7000 (GE Healthcare) instrument. The electrophoresis band intensity ratio of RNA capping to RNA decapping was counted using ImageQuant (GE Healthcare) software, and the decapping rate of the decapping enzyme was calculated (as shown in Table 6).

T7 RNA polymerase [1] = molecular target: T2, T7 RNA polymerase (Escherichia phage T7, UniProt P00573); assay: In vitro transcription yield of mRNA with cap analog (co-transcriptional capping); format: biochemical; parameters: in vitro transcription yield of mRNA: unit not given here; settings: for Yield per unit template: in vitro transcription, 1 μg DNA template, 20 μL system, 37° C. 2 hours
T2 sequence (P00573 whole entry): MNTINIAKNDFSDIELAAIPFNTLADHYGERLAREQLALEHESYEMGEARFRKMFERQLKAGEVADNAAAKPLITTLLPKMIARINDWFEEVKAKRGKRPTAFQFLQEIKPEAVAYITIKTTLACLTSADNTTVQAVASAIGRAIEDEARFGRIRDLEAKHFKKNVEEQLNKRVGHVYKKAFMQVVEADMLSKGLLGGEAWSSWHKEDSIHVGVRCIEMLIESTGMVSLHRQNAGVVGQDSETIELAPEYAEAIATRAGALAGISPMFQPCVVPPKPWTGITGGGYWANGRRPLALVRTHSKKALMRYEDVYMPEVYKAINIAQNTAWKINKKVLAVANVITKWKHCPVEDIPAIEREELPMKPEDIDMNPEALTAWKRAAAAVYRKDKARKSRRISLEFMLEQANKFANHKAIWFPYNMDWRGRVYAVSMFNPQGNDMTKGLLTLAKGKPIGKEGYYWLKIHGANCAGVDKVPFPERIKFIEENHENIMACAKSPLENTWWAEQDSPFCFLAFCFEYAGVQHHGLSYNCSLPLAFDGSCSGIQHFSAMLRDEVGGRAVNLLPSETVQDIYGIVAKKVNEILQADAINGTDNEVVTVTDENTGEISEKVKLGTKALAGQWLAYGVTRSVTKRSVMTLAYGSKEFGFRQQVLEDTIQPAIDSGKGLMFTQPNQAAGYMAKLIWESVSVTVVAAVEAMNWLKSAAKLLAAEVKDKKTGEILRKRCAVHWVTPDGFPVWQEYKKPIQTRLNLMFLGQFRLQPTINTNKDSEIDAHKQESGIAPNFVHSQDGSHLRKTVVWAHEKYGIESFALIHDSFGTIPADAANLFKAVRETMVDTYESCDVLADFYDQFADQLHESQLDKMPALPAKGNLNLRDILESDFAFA
Protocol: (1) Capping synthesis using cap analogs
The plasmid was first linearized with plasmid linearizing enzyme, and then the linearized plasmid was purified.
(2) In vitro transcription and synthesis of mRNA
(§1) YK-CAP-001 to 006 and compound 14 in Table 1 were respectively used as cap analogs.
(§2) During the experiment, the volume of materials required for the system was first calculated, and then sample addition was conducted. The system was first added with sterile enzyme-free water, followed by the sequential addition of 10× buffer, NTPs, and cap analogs, mixed well, and gently centrifuged. Nuclease inhibitors, inorganic pyrophosphatase, T7 RNA polymerase, and linearized DNA templates were then added thereto. The system was mixed well, gently centrifuged, and incubated at 37° C. After 2 hours of incubation, the system was added with 1 U of DNase I and incubated at 37° C. for another 30 minutes. The mRNA precipitate was then washed with 75% ethanol, and after the ethanol was briefly evaporated to dryness, the mRNA was redissolved in sterile enzyme-free water.
(3) The transcription product was purified, and the in vitro transcription yield of mRNA was recorded.

[2] = Characterization of lipid nanoparticles encapsulating Fluc-mRNA; format: physicochemical; settings: for Particle size: LNP (YK-009/DSPC/cholesterol/DMG-PEG2000) encapsulating Fluc-mRNA transcribed using the cap analog; for PDI: LNP encapsulating Fluc-mRNA transcribed using the cap analog; for EE: encapsulation efficiency of LNP encapsulating Fluc-mRNA transcribed using the cap analog
Protocol: Cationic lipid YK-009 (Beijing Youcare Kechuang Pharmaceutical Technology Co., Ltd.), DSPC (AVT (Shanghai) Pharmaceutical Technology Co., Ltd.), cholesterol (AVT (Shanghai) Pharmaceutical Technology Co., Ltd.), and DMG-PEG2000 were dissolved in ethanol at a molar ratio of 49:10:39.5:1.5, and the mRNA was diluted in 50 mM citrate buffer (pH=4). The ethanol lipid solution was mixed with the Fluc-mRNA aqueous solution prepared from different cap structures at a volume ratio of 1:3 using a microfluidic device at a flow rate of 10 mL/min to prepare LNPs at a weight ratio of total lipid to mRNA of approximately 15:1. The resulting liposomes were diluted to 10-fold volume with PBS, and then ultrafiltered with a 300 KDa ultrafiltration tube to remove ethanol. The volume was then fixed to a certain volume with PBS. Finally, the LNPs were filtered through a 0.2 μm sterile filter to obtain an LNP preparation encapsulating Fluc-mRNA using YK-009/DSPC/cholesterol/DMG-PEG2000 (at a molar ratio of 49:10:39.5:1.5).
The particle size and polydispersity index (PDI) were determined by dynamic light scattering using a Malvern laser particle size analyzer. 10 μL of the liposome solution was taken, diluted to 1 mL with RNase-free deionized water, and added to a sample pool. Each sample was measured in triplicate. The measurement conditions were: a scattering angle of 90° and a temperature of 25° C. The encapsulation efficiency of LNPs was determined using the Quant-iT RiboGreen RNA Quantification Kit (Thermo Fisher Scientific, UK) according to the manufacturer's instructions.

BALB/C mice = assay: In vivo imaging of protein expressed by LNP-carrying Fluc-mRNA in mice; settings: female BALB/C mice
Protocol: The LNP preparation containing […] of Fluc-mRNAs transcribed using the cap analogs YK-CAP-001 to 006 in the present disclosure and the cap analogs N-7413, compound 14, and m6A in the prior art was intramuscularly injected into female BALB/C mice aged 4 to 6 weeks and weighing 17 to 19 g. At specific time points after administration (6 hours, 12 hours, 24 hours, 48 hours, 96 hours, and 168 hours), the mice were intraperitoneally injected with fluorescence imaging substrate. The mice were then allowed to move freely for 5 minutes, followed by detection of the average radiation intensity (corresponding to the amount of protein expression) of the protein expressed by LNP-carrying mRNA in the mice using an IVIS Spectrum small-animal in vivo imaging system.

T7 RNA polymerase [3] = molecular target: T2, T7 RNA polymerase; assay: Capping rate of in vitro transcribed mRNA by LC-MS; format: biochemical; settings: mRNA transcribed with the cap analog, LC-MS
Protocol: as §1, §2
(4) The obtained mRNA was subjected to an annealing reaction with a probe.
The annealing reaction was performed in a PCR instrument: 95° C. for 5 minutes; 65° C. for 2 minutes; 55° C. for 2 minutes; 40° C. for 2 minutes; 22° C. for 2 minutes.
(5) Magnetic bead pretreatment and probe binding: 100 μL of magnetic beads was placed on a magnetic frame for pretreatment. The magnetic bead solution was added with 120 μL of sample and incubated at room temperature for 30 minutes with slow mixing.
(6) mRNA splicing and obtaining the 5′ single-strand sequence bound to the probe
The mixture was added with 20 μL of RNase H (5 U/μL) and incubated at 37° C. for 3 hours with mixing every half hour. After incubation, the magnetic beads were washed and then added with 100 μL of 75% methanol heated to 80° C. The mixture was heated to 80° C. on a heating plate, held for 3 minutes, then placed on a magnetic frame to aspirate the supernatant, and dried at room temperature for 45 minutes to a volume of 10 μL using a centrifugal evaporator. The sample was then resuspended in 50 μL of 100 μM EDTA/1% MeOH and ready for LC-MS analysis to determine the capping of RNA in the transcription reaction. Since there is a significant difference in molecular weight between capped and uncapped bases, the capping rate of mRNA transcription initiated by different cap analogs can be determined based on the difference in molecular mass.

[4] = 6 h after intramuscular injection of LNP Fluc-mRNA
[5] = 12 h after intramuscular injection of LNP Fluc-mRNA
[6] = 24 h after intramuscular injection of LNP Fluc-mRNA
[7] = 48 h after intramuscular injection of LNP Fluc-mRNA
[8] = 96 h after intramuscular injection of LNP Fluc-mRNA
[9] = 168 h after intramuscular injection of LNP Fluc-mRNA

Structure (SMILES): COC1C(OP(=O)([O-])OC[C@H]2O[C@@H](n3cnc4c(=O)[nH]c(N)nc43)C(O)C2O)[C@@H](COP(=O)(O)OP(=O)(O)OP(=O)(O)OC[C@]23COC(C2O)[C@H]([n+]2cn(C)c4c(=O)[nH]c(N)nc42)O3)O[C@H]1n1cnc2c(N)ncnc21 (stereo partly drawn) [Compound 14, reference compound]
- Decapping rate (%) of DCP2 enzyme (DCP2 enzyme): 28.8%
- Yield per unit template (T7 RNA polymerase [1]): 120.9 µg
- Particle size [2]: 102.2 nm
- PDI [2]: 0.018
- EE [2]: 96.8%
- Average radiation intensity (BALB/C mice; [4]): 2589500 p/s/cm^2/sr
- Average radiation intensity (BALB/C mice; 6 h after intramuscular injection of LNP Fluc-mRNA, listed as compound 14): 2,589,500 p/s/cm^2/sr
- Average radiation intensity (BALB/C mice; [5]): 1622075 p/s/cm^2/sr
- Average radiation intensity (BALB/C mice; [6]): 1099050 p/s/cm^2/sr
- Average radiation intensity (BALB/C mice; [7]): 946675 p/s/cm^2/sr
- Average radiation intensity (BALB/C mice; [8]): 57270 p/s/cm^2/sr
- Average radiation intensity (BALB/C mice; [9]): 17828 p/s/cm^2/sr
- Capping rate (T7 RNA polymerase [3]): 77.5%

Structure (SMILES): COCC1C(O)[C@H]([n+]2cn(C)c3c(=O)[nH]c(N)nc32)O[C@@H]1COP(=O)(O)OP(=O)(O)OP(=O)(O)OC[C@H]1O[C@@H](n2cnc3c(N)ncnc32)C(OC)C1OP(=O)([O-])OC[C@H]1O[C@@H](n2cnc3c(=O)[nH]c(N)nc32)C(O)C1O (stereo partly drawn) [HN3002, reference compound]
- Decapping rate (%) of DCP2 enzyme (DCP2 enzyme): 23.2%
- Particle size [2]: 91.03 nm
- PDI [2]: 0.032
- EE [2]: 94.8%

Structure (SMILES): COC1C(OP(=O)([O-])OC[C@H]2O[C@@H](n3cnc4c(=O)[nH]c(N)nc43)C(O)C2O)[C@@H](COP(=O)(O)OP(=O)(O)OP(=O)(O)OC[C@H]2O[C@@H]([n+]3cn(C)c4c(=O)[nH]c(N)nc43)C(O)C2OC)O[C@H]1n1cnc2c(N)ncnc21 (stereo partly drawn) [N-7413, reference compound]
- Decapping rate (%) of DCP2 enzyme (DCP2 enzyme): 48.6%
- Particle size [2]: 100.5 nm
- PDI [2]: 0.041
- EE [2]: 95.4%
- Average radiation intensity (BALB/C mice; [5]): 1806125 p/s/cm^2/sr
- Average radiation intensity (BALB/C mice; [6]): 906625 p/s/cm^2/sr
- Average radiation intensity (BALB/C mice; [7]): 710545 p/s/cm^2/sr
- Average radiation intensity (BALB/C mice; [8]): 68400 p/s/cm^2/sr
- Average radiation intensity (BALB/C mice; [9]): 18233 p/s/cm^2/sr

Structure (SMILES): COC1C(OP(=O)([O-])OC[C@H]2O[C@@H](n3cnc4c(=O)[nH]c(N)nc43)C(O)C2O)[C@@H](COP(=O)(O)OP(=O)(O)OP(=O)(O)OC[C@]23O[C@@H]([n+]4cn(C)c5c(=O)[nH]c(N)nc54)C(O[C@H]2CCN(C)C)C3O)O[C@H]1n1cnc2c(N)ncnc21 (stereo partly drawn) [YK-CAP-001]
- Decapping rate (%) of DCP2 enzyme (DCP2 enzyme): 26.3%
- in vitro transcription yield of mRNA (T7 RNA polymerase [1]): 89.3
- Yield per unit template (T7 RNA polymerase [1]): 89.3 µg
- Particle size [2]: 86.13 nm
- PDI [2]: 0.044
- EE [2]: 95.7%
- Average radiation intensity (BALB/C mice; [4]): 1728300 p/s/cm^2/sr
- Average radiation intensity (BALB/C mice; [5]): 985800 p/s/cm^2/sr
- Average radiation intensity (BALB/C mice; [6]): 612430 p/s/cm^2/sr
- Average radiation intensity (BALB/C mice; [7]): 578750 p/s/cm^2/sr
- Average radiation intensity (BALB/C mice; [8]): 43485 p/s/cm^2/sr
- Average radiation intensity (BALB/C mice; [9]): 10467 p/s/cm^2/sr
- Capping rate (T7 RNA polymerase [3]): 73.1%

Structure (SMILES): COC1C(OP(=O)([O-])OC[C@H]2O[C@@H](n3cnc4c(=O)[nH]c(N)nc43)C(O)C2O)[C@@H](COP(=O)(O)OP(=O)(O)OP(=O)(O)OC[C@]23O[C@@H]([n+]4cn(C)c5c(=O)[nH]c(N)nc54)C(O[C@H]2CC#N)C3O)O[C@H]1n1cnc2c(N)ncnc21 (stereo partly drawn) [YK-CAP-002]
- Decapping rate (%) of DCP2 enzyme (DCP2 enzyme): 24.6%
- Yield per unit template (T7 RNA polymerase [1]): 103.1 µg
- Particle size [2]: 86.31 nm
- PDI [2]: 0.058
- EE [2]: 93.1%
- Average radiation intensity (BALB/C mice; [4]): 1466925 p/s/cm^2/sr
- Average radiation intensity (BALB/C mice; [5]): 801300 p/s/cm^2/sr
- Average radiation intensity (BALB/C mice; [6]): 278665 p/s/cm^2/sr
- Average radiation intensity (BALB/C mice; [7]): 320725 p/s/cm^2/sr
- Average radiation intensity (BALB/C mice; [8]): 20893 p/s/cm^2/sr
- Average radiation intensity (BALB/C mice; [9]): 9768 p/s/cm^2/sr
- Capping rate (T7 RNA polymerase [3]): 70.2%

Structure (SMILES): CNc1ncnc2c1ncn2[C@@H]1O[C@H](COP(=O)(O)OP(=O)(O)OP(=O)(O)OC[C@H]2O[C@@H]([n+]3cn(C)c4c(=O)[nH]c(N)nc43)C(O)C2O)C(OP(=O)([O-])OC[C@H]2O[C@@H](n3cnc4c(=O)[nH]c(N)nc43)C(O)C2O)C1OC (stereo partly drawn) [m6A, reference compound]
- Decapping rate (%) of DCP2 enzyme (DCP2 enzyme): 27.5%
- Particle size [2]: 89.99 nm
- PDI [2]: 0.047
- EE [2]: 94.2%
- Average radiation intensity (BALB/C mice; [5]): 702940 p/s/cm^2/sr
- Average radiation intensity (BALB/C mice; [6]): 201585 p/s/cm^2/sr
- Average radiation intensity (BALB/C mice; [7]): 238500 p/s/cm^2/sr
- Average radiation intensity (BALB/C mice; [8]): 33586 p/s/cm^2/sr
- Average radiation intensity (BALB/C mice; [9]): 12000 p/s/cm^2/sr
